From patent publication US20250179052A1, “PYRIMIDINYL-OXY-QUINOLINE BASED HERBICIDAL COMPOUNDS” (SYNGENTA CROP PROTECTION AG, priority 2022, published 2025)

What was measured:
Details in all cases: 250 g/ha, evaluated after 13 days, five-point scale
[1] = tested on: Amaranthus retoflexus (AMARE); assay: Post-emergence herbicidal glasshouse test; format: in vivo
[2] = tested on: Setaria faberi (SETFA); assay: Post-emergence herbicidal glasshouse test; format: in vivo
[3] = tested on: AMAPA; assay: Post-emergence herbicidal glasshouse test; format: in vivo, Amaranthus tuberculatus
[4] = tested on: Ipomoea hederacea (IPOHE); assay: Pre-emergence herbicidal glasshouse test; format: in vivo
[5] = tested on: AMAPA; assay: Pre-emergence herbicidal glasshouse test; format: in vivo, Amaranthus tuberculatus
[6] = tested on: Ipomoea hederacea (IPOHE); assay: Post-emergence herbicidal glasshouse test; format: in vivo
[7] = tested on: Amaranthus retoflexus (AMARE); assay: Pre-emergence herbicidal glasshouse test; format: in vivo
[8] = tested on: Setaria faberi (SETFA); assay: Pre-emergence herbicidal glasshouse test; format: in vivo
[9] = tested on: Echinochloa crus-galli (ECHCG); assay: Post-emergence herbicidal glasshouse test; format: in vivo
[10] = tested on: Echinochloa crus-galli (ECHCG); assay: Pre-emergence herbicidal glasshouse test; format: in vivo

| Compound | percentage damage caused to the plant, AMARE [1] | percentage damage caused to the plant, SETFA [2] | percentage damage caused to the plant, AMAPA [3] | percentage damage caused to the plant, IPOHE [4] | percentage damage caused to the plant, AMAPA [5] | percentage damage caused to the plant, IPOHE [6] | percentage damage caused to the plant, AMARE [7] | percentage damage caused to the plant, SETFA [8] | percentage damage caused to the plant, ECHCG [9] | percentage damage caused to the plant, ECHCG [10] |
| --- | --- | --- | --- | --- | --- | --- | --- | --- | --- | --- |
| Cc1nc(C(F)(F)Cl)nc2cccc(Oc3ncc(Cl)cn3)c12 [Compound 1.069] | 3 (3=41-60%) | 2 (2=21-40%) | 3 (3=41-60%) | 1 (1=0-20%) | 5 (5=81-100%) | 2 (2=21-40%) | 5 (5=81-100%) | 5 (5=81-100%) | 2 (2=21-40%) | 2 (2=21-40%) |
| FC(F)(F)c1ncc2c(Oc3ncc(Cl)cn3)cccc2n1 [Compound 1.002, 5-(5-chloropyrimidin-2-yl)oxy-2-(trifluoromethyl)quinazoline] | 5 (5=81-100%) | 4 (4=61-80%) | 5 (5=81-100%) | 5 (5=81-100%) | 5 (5=81-100%) | 4 (4=61-80%) | 5 (5=81-100%) | 5 (5=81-100%) | 5 (5=81-100%) | 5 (5=81-100%) |
| FC(F)(F)c1ncc2c(Oc3ncc(Br)cn3)cccc2n1 [Compound 1.005] | 4 (4=61-80%) | 4 (4=61-80%) | 5 (5=81-100%) | 3 (3=41-60%) | 5 (5=81-100%) | 4 (4=61-80%) | 5 (5=81-100%) | 4 (4=61-80%) | 4 (4=61-80%) | 3 (3=41-60%) |
| Cc1cnc(Oc2cccc3nc(C(F)(F)F)ncc23)nc1 [Compound 1.004] | 3 (3=41-60%) | 4 (4=61-80%) | 4 (4=61-80%) | 4 (4=61-80%) | 4 (4=61-80%) | 4 (4=61-80%) | 5 (5=81-100%) | 4 (4=61-80%) | 3 (3=41-60%) | 5 (5=81-100%) |
| Fc1cnc(Oc2cccc3nc(C(F)(F)F)ncc23)nc1 [Compound 1.070] | 4 (4=61-80%) | 4 (4=61-80%) | 4 (4=61-80%) | 5 (5=81-100%) | 5 (5=81-100%) | 4 (4=61-80%) | 5 (5=81-100%) | 5 (5=81-100%) | 4 (4=61-80%) | 5 (5=81-100%) |
| Cc1cnc(Oc2cccc3nc(C(F)(F)F)ccc23)nc1 [Compound 1.040] | 4 (4=61-80%) | 4 (4=61-80%) | 4 (4=61-80%) | 5 (5=81-100%) | 5 (5=81-100%) | 5 (5=81-100%) | 5 (5=81-100%) | 5 (5=81-100%) | 4 (4=61-80%) | 5 (5=81-100%) |
| FC(F)(F)c1ncc2c(Oc3ncccn3)cccc2n1 [Compound 1.008] | 3 (3=41-60%) | 1 (1=0-20%) | 3 (3=41-60%) | 3 (3=41-60%) | 4 (4=61-80%) | 3 (3=41-60%) | 4 (4=61-80%) | 4 (4=61-80%) | 1 (1=0-20%) | 1 (1=0-20%) |
| FC(F)Oc1cnc(Oc2cccc3nc(C(F)(F)F)ncc23)nc1 [Compound 1.009] | 1 (1=0-20%) | 1 (1=0-20%) | 1 (1=0-20%) | 1 (1=0-20%) | 2 (2=21-40%) | 1 (1=0-20%) | 1 (1=0-20%) | 1 (1=0-20%) | 1 (1=0-20%) | 1 (1=0-20%) |
| Cc1ccc(Oc2ncc(Cl)cn2)c2cnc(C(F)(F)F)nc12 [Compound 1.068] | 3 (3=41-60%) | 1 (1=0-20%) | 2 (2=21-40%) | 2 (2=21-40%) | 5 (5=81-100%) | 2 (2=21-40%) | 5 (5=81-100%) | 3 (3=41-60%) | 1 (1=0-20%) | 3 (3=41-60%) |
| CCOc1ncc2c(Oc3ncc(Cl)cn3)cccc2n1 [Compound 1.063, 5-(5-chloropyrimidin-2-yl)oxy-2-ethoxy-quinazoline] | 5 (5=81-100%) | 4 (4=61-80%) | 5 (5=81-100%) | 5 (5=81-100%) | 5 (5=81-100%) | 5 (5=81-100%) | 5 (5=81-100%) | 4 (4=61-80%) | 5 (5=81-100%) | 5 (5=81-100%) |
| Clc1cnc(Oc2cccc3ccncc23)nc1 [Compound 1.022] | 1 (1=0-20%) | 1 (1=0-20%) | 2 (2=21-40%) | 1 (1=0-20%) | 1 (1=0-20%) | 1 (1=0-20%) | 1 (1=0-20%) | 1 (1=0-20%) | 1 (1=0-20%) | 1 (1=0-20%) |
| Cc1ccc(Oc2ncc(Cl)cn2)c2c(C)nc(C(F)(F)F)nc12 [Compound 1.073] | 1 (1=0-20%) | 1 (1=0-20%) | 1 (1=0-20%) | 1 (1=0-20%) | 1 (1=0-20%) | 1 (1=0-20%) | 1 (1=0-20%) | 1 (1=0-20%) | 1 (1=0-20%) | 1 (1=0-20%) |
| Cc1cc(C(F)(F)F)nc2cccc(Oc3ncc(Cl)cn3)c12 [Compound 1.021] | 3 (3=41-60%) | 1 (1=0-20%) | 2 (2=21-40%) | 1 (1=0-20%) | 1 (1=0-20%) | 2 (2=21-40%) | 1 (1=0-20%) | 1 (1=0-20%) | 1 (1=0-20%) | 1 (1=0-20%) |
| FC(F)(F)c1ccc2c(Oc3ncc(Cl)cn3)cccc2n1 [Compound 1.020, 5-(5-chloropyrimidin-2-yl)oxy-2 (trifluoromethyl)quinoline] | 5 (5=81-100%) | 5 (5=81-100%) | 5 (5=81-100%) | 4 (4=61-80%) | 5 (5=81-100%) | 4 (4=61-80%) | 5 (5=81-100%) | 5 (5=81-100%) | 4 (4=61-80%) | 5 (5=81-100%) |
| FC(F)(Cl)c1ncc2c(Oc3ncc(Cl)cn3)ccc(Cl)c2n1 [Compound 1.044] | 3 (3=41-60%) | 3 (3=41-60%) | 3 (3=41-60%) | 1 (1=0-20%) | 5 (5=81-100%) | 2 (2=21-40%) | 3 (3=41-60%) | 5 (5=81-100%) | 1 (1=0-20%) | 2 (2=21-40%) |
